From the NIST ThermoML archive (doi:10.1021/je060247x)
± gives the expanded uncertainty stated by the source.

Settings: Liquid

CCCCn1cc[n+](C)c1C.F[P-](F)(F)(F)(F)F [1-butyl-2,3-dimethylimidazolium hexafluorophosphate]
mass density [kg/m3]
Settings	313.15 K	323.15 K	333.15 K	343.15 K	353.15 K	363.15 K	373.15 K	383.15 K	393.15 K
100 kPa	1339.6 ± 3.4	1330.9 ± 3.4	1321.9 ± 3.3	1313.5 ± 3.2	1305.4 ± 3.2	1297.6 ± 3.1	1290.6 ± 3.1	1283.4 ± 3	1276.1 ± 3
1000 kPa	1340 ± 3.6	1331.4 ± 3.5	1322.4 ± 3.4	1314.1 ± 3.4	1306 ± 3.3	1298.2 ± 3.3	1291.2 ± 3.2	1284 ± 3.2	1276.8 ± 3.1
2000 kPa	1340.7 ± 3.7	1331.9 ± 3.7	1323 ± 3.6	1314.6 ± 3.5	1306.6 ± 3.5	1298.8 ± 3.4	1291.9 ± 3.4	1284.7 ± 3.3	1277.4 ± 3.3
3000 kPa	1341.2 ± 3.9	1332.5 ± 3.8	1323.5 ± 3.7	1315.2 ± 3.7	1307.2 ± 3.6	1299.4 ± 3.5	1292.5 ± 3.5	1285.3 ± 3.4	1278.1 ± 3.4
4000 kPa	1341.6 ± 4	1333.1 ± 4	1324.1 ± 3.9	1315.8 ± 3.8	1307.8 ± 3.8	1300.1 ± 3.7	1293.2 ± 3.6	1286 ± 3.6	1278.8 ± 3.5
5000 kPa	1342.1 ± 4.2	1333.6 ± 4.1	1324.6 ± 4.1	1316.3 ± 4	1308.3 ± 3.9	1300.7 ± 3.8	1293.8 ± 3.8	1286.6 ± 3.7	1279.4 ± 3.7
10000 kPa	1344.6 ± 5	1336.2 ± 4.9	1327.2 ± 4.8	1319.1 ± 4.7	1311.1 ± 4.7	1303.6 ± 4.6	1296.7 ± 4.5	1289.7 ± 4.4	1282.6 ± 4.3

CCCCn1cc[n+](C)c1.F[B-](F)(F)F [1-butyl-3-methylimidazolium tetrafluoroborate]
mass density [kg/m3]
Settings	100 kPa	1000 kPa	2000 kPa	3000 kPa	4000 kPa	5000 kPa	10000 kPa
293.15 K	1206.9 ± 2.5	1207.3 ± 2.6	1207.7 ± 2.7	1208.2 ± 2.8	1208.7 ± 2.9	1209.1 ± 3	1211.3 ± 3.5
303.15 K	1198.6 ± 2.5	1199.1 ± 2.6	1199.6 ± 2.6	1200.1 ± 2.7	1200.7 ± 2.8	1201.1 ± 2.9	1203.5 ± 3.4
313.15 K	1190.8 ± 2.4	1191.3 ± 2.5	1191.8 ± 2.6	1192.2 ± 2.7	1192.7 ± 2.8	1193.2 ± 2.9	1195.5 ± 3.3
323.15 K	1183 ± 2.4	1183.5 ± 2.4	1184 ± 2.5	1184.5 ± 2.6	1185 ± 2.7	1185.5 ± 2.8	1187.8 ± 3.3
333.15 K	1175.8 ± 2.3	1176.3 ± 2.4	1176.9 ± 2.5	1177.4 ± 2.6	1177.9 ± 2.6	1178.4 ± 2.7	1181 ± 3.2
343.15 K	1168.4 ± 2.3	1168.9 ± 2.3	1169.3 ± 2.4	1169.8 ± 2.5	1170.3 ± 2.6	1170.8 ± 2.7	1173.1 ± 3.1
353.15 K	1161.3 ± 2.2	1161.8 ± 2.3	1162.4 ± 2.4	1163 ± 2.5	1163.5 ± 2.5	1164.1 ± 2.6	1166.6 ± 3
363.15 K	1154.7 ± 2.2	1155.3 ± 2.2	1155.8 ± 2.3	1156.4 ± 2.4	1156.9 ± 2.5	1157.5 ± 2.6	1160.1 ± 3
373.15 K	1148.2 ± 2.1	1148.8 ± 2.2	1149.3 ± 2.3	1149.9 ± 2.4	1150.4 ± 2.4	1151 ± 2.5	1153.6 ± 2.9
383.15 K	1142 ± 2.1	1142.5 ± 2.2	1143.1 ± 2.2	1143.7 ± 2.3	1144.3 ± 2.4	1144.8 ± 2.5	1147.6 ± 2.8
393.15 K	1136.1 ± 2.1	1136.7 ± 2.1	1137.3 ± 2.2	1137.9 ± 2.3	1138.4 ± 2.3	1139 ± 2.4	1141.9 ± 2.8

CCCCn1cc[n+](C)c1.O=S(=O)([O-])C(F)(F)F [1-butyl-3-methylimidazolium trifluoromethanesulfonate]
mass density [kg/m3]
Settings	100 kPa	1000 kPa	2000 kPa	3000 kPa	4000 kPa	5000 kPa	10000 kPa
293.15 K	1306.1 ± 1.5	1306.6 ± 1.6	1307.1 ± 1.7	1307.7 ± 1.8	1308.2 ± 1.9	1308.8 ± 2	1311.5 ± 2.5
303.15 K	1296.6 ± 1.5	1297.1 ± 1.6	1297.7 ± 1.7	1298.3 ± 1.8	1298.9 ± 1.9	1299.5 ± 2	1302.3 ± 2.5
313.15 K	1287.6 ± 1.5	1288.1 ± 1.6	1288.7 ± 1.7	1289.3 ± 1.7	1289.9 ± 1.8	1290.5 ± 1.9	1293.3 ± 2.4
323.15 K	1278.7 ± 1.4	1279.3 ± 1.5	1280 ± 1.6	1280.7 ± 1.7	1281.3 ± 1.8	1282 ± 1.9	1285 ± 2.3
333.15 K	1270.5 ± 1.4	1271.1 ± 1.5	1271.7 ± 1.6	1272.4 ± 1.7	1273.1 ± 1.8	1273.8 ± 1.8	1276.9 ± 2.3
343.15 K	1262.5 ± 1.4	1263.1 ± 1.5	1263.8 ± 1.5	1264.5 ± 1.6	1265.2 ± 1.7	1265.8 ± 1.8	1269.1 ± 2.2
353.15 K	1254 ± 1.4	1254.7 ± 1.4	1255.3 ± 1.5	1256 ± 1.6	1256.7 ± 1.7	1257.4 ± 1.8	1260.7 ± 2.2
363.15 K	1246.8 ± 1.4	1247.5 ± 1.4	1248.3 ± 1.5	1249 ± 1.6	1249.7 ± 1.6	1250.4 ± 1.7	1253.8 ± 2.1
373.15 K	1239.6 ± 1.3	1240.3 ± 1.4	1241.1 ± 1.5	1241.8 ± 1.5	1242.5 ± 1.6	1243.2 ± 1.7	1246.6 ± 2.1
383.15 K	1232.4 ± 1.3	1233.1 ± 1.4	1233.9 ± 1.4	1234.6 ± 1.5	1235.4 ± 1.6	1236.1 ± 1.7	1239.7 ± 2
393.15 K	1225.3 ± 1.3	1226.1 ± 1.4	1226.8 ± 1.4	1227.6 ± 1.5	1228.4 ± 1.6	1229.1 ± 1.6	1232.7 ± 2

CCCCCCn1cc[n+](C)c1.F[P-](F)(F)(F)(F)F [1-hexyl-3-methylimidazolium hexafluorophosphate]
mass density [kg/m3]
Settings	100 kPa	1000 kPa	2000 kPa	3000 kPa	4000 kPa	5000 kPa	10000 kPa
293.15 K	1299.8 ± 3.1	1300.3 ± 3.3	1300.8 ± 3.4	1301.4 ± 3.6	1301.9 ± 3.7	1302.4 ± 3.8	1304.9 ± 4.6
303.15 K	1290.6 ± 3.1	1291.1 ± 3.2	1291.7 ± 3.3	1292.2 ± 3.5	1292.7 ± 3.6	1293.2 ± 3.8	1295.8 ± 4.5
313.15 K	1281.5 ± 3	1282 ± 3.1	1282.6 ± 3.3	1283.1 ± 3.4	1283.7 ± 3.5	1284.3 ± 3.7	1287 ± 4.4
323.15 K	1272.7 ± 3	1273.2 ± 3.1	1273.9 ± 3.2	1274.5 ± 3.3	1275 ± 3.5	1275.6 ± 3.6	1278.5 ± 4.3
333.15 K	1264.2 ± 2.9	1264.8 ± 3	1265.4 ± 3.1	1266 ± 3.3	1266.6 ± 3.4	1267.3 ± 3.5	1270.3 ± 4.2
343.15 K	1256.1 ± 2.8	1256.7 ± 3	1257.3 ± 3.1	1258 ± 3.2	1258.6 ± 3.3	1259.2 ± 3.5	1262 ± 4.1
353.15 K	1248 ± 2.8	1248.6 ± 2.9	1249.2 ± 3	1249.9 ± 3.1	1250.5 ± 3.3	1251.2 ± 3.4	1254.2 ± 4
363.15 K	1240.6 ± 2.7	1241.2 ± 2.9	1242 ± 3	1242.6 ± 3.1	1243.3 ± 3.2	1244 ± 3.3	1247.2 ± 3.9
373.15 K	1233.4 ± 2.7	1234.1 ± 2.8	1234.9 ± 2.9	1235.6 ± 3	1236.3 ± 3.2	1237 ± 3.3	1240.3 ± 3.9
383.15 K	1226.4 ± 2.7	1227.2 ± 2.8	1227.9 ± 2.9	1228.7 ± 3	1229.4 ± 3.1	1230.1 ± 3.2	1233.6 ± 3.8
393.15 K	1219.4 ± 2.6	1220.1 ± 2.7	1220.9 ± 2.8	1221.7 ± 2.9	1222.5 ± 3	1223.3 ± 3.2	1227 ± 3.7
